# Results as given in patent US20030134893A1, “Combination chemotherapy” (priority 1999, published 2003).
# Values joined by “and” are separate entries in the source; they are usually repeats but may differ in a detail not shown here. Equal entries are not always repeated. Where two headings read alike, the source gives them in different places. Marks after values point to notes of the source that are not given here.
# Key:
# in vivo [1] = details: female, mouse, in vivo
# Experimental: (§1) Each agent was also evaluated alone, and treatment groups were compared to untreated controls.
# [2] = system: LC-12 squamous cell lung carcinoma tumor; experiment: in vivo
# Experimental: as §1
# in vivo [3] = details: female, mouse, iv
# Experimental: The test mice were obtained from Charles River Laboratories, Wilmington, Mass. On Day 0 of the test, each mouse was surgically implanted (subcutaneously) with a fragment of LC-12 squamous cell lung carcinoma tumor weighing approximately 30 to 60 mg. The tumor fragments were implanted using a 12 gauge trocar. The mice were weighed weekly, and tumor size (width and length in mm) were measured two times each week with standard calipers. Tumor mass for each animal was calculated according to the formula: [formula]
# where “a” is width of the tumor in mm, and “b” is the length in mm. […] Antitumor activity was assessed according to four parameters: (1) partial tumor response (PR); (2) complete tumor response (CR); (3) tumor-free survival (TF); and (4) tumor growth delay (TL). Tumor growth delay is expressed as a T−C value, where T is the median days required for the treatment group tumors to reach a predetermined size (e.g., 750 mg), and C is the median days for the control group tumors to reach this size. From the tumor growth delay value, the net log10 tumor cell kill is calculated as follows:
# where Td is the days for the tumor mass to double, and Rx is the total days of treatment. […] The conversion of the T−C values to log10 cell kill is possible because the Td for tumors regrowing after treatment is approximately the same as that for untreated control mice. […]
# [4] = system: LC-12 Mouse Lung Carcinoma
# in vivo [5] = details: female, BALB/C, mouse, po
# [6] = Pharmacokinetics of oral CI-994 in the solid tumor Phase 1 study, incl. food effect; format: in vivo, human; details: fasted patients
# [7] = Route of elimination of radiolabeled drug, monkeys; format: in vivo; details: within 24 hours
# Experimental: (§2) Mass balance/route of elimination studies have not been conducted in humans. Animal studies indicate that the principal route of elimination is via renal excretion, with 80% and 62% of radiolabeled drug appearing in the urine of monkeys and rats, respectively, within 24 hours.
# [8] = system: nonsmall cell lung cancer, renal cell cancer and other cancers; experiment: Phase 2 program with CI-994 as a single agent
# [9] = Route of elimination of radiolabeled drug, rats; format: in vivo; details: within 24 hours
# Experimental: as §2
# [10] = system: relapsed acute leukemia or other hematologic malignancy; experiment: Phase 1 study of CI-994, once daily high-dose 5-day schedule; format: in vivo
# Experimental: An additional Phase 1 study was conducted in patients with relapsed acute leukemia or other hematologic malignancy using a once daily high-dose 5-day dosing schedule. The MTD was 135 mg/m^2/day. […] Hematologic toxicities cannot be assessed in this patient population.
# solid tumor = experiment: Phase 1 dose-escalation clinical study of CI-994 (solid tumor); format: in vivo, human
# Experimental: In one such study, patients were treated using a dose-escalation scheme that increased both the daily dose and the duration of treatment. The majority of patients had received extensive prior chemotherapy. The maximum-tolerated dose (MTD) was 15 mg/m^2/day when the duration of treatment was 14 consecutive days. To allow more prolonged treatment, lower doses were studied. Using a schedule of 8 weeks of continuous daily therapy, followed by a 2-week ‘drug holiday’, the MTD was 8 mg/m^2/day. […] Blood counts tended to stabilize even with continued treatment and to recover quickly when treatment was stopped.
# [11] = Paclitaxel 15 mg/kg/day Days 11-15
# [12] = Carboplatin 30 mg/kg/day Days 11-15
# [13] = Carboplatin 15 mg/kg/day ip Days 8-12
# [14] = Carboplatin 20 mg/kg/day ip Days 8-12
# [15] = CI-994 15 mg/kg/day Days 11-15,18-22,25-29
# [16] = CI-994 7.5 mg/kg/day oral Days 8-12,15-19, 22-26
# [17] = CI-994 15.0 mg/kg/day oral Days 8-12,15-19, 22-26
# [18] = CI-994 30.0 mg/kg/day oral Days 8-12,15-19, 22-26
# [19] = CI-994 60.0 mg/kg/day oral Days 8-12,15-19, 22-26
# [20] = CI-994 60.0 mg/kg/day oral Days 8-12,15-19, 22-26, 60 mg/kg/day
structure (smiles),measurement,setting,value
"CC(=O)O[C@H]1C(=O)[C@@]2(C)[C@H]([C@H](OC(=O)c3ccccc3)[C@]3(O)C[C@H](OC(=O)[C@H](O)[C@@H](NC(=O)c4ccccc4)c4ccccc4)C(C)=C1C3(C)C)[C@]1(OC(C)=O)CO[C@@H]1C[C@@H]2O [Taxol, paclitaxel, reference compound]",MTD,in vivo [1]; 15 mg/kg,15 mg/kg
same,Net log10 Kill,[2]; [11],0.0 log10
same,No. Tumor Free (40 days after the last treatment),[2]; [11],0
same,Nonspecific Deaths,[2]; [11],0/10
same,T-C (days to reach 750 mg),[2]; [11],3.7 days
same,MTD,in vivo [3],20 mg/kg/day
"N.N.O=C([O-])C1(C(=O)[O-])CCC1.[Pt+2] [Carboplatin, carboplatin, reference compound]",% Weight Change,[2]; [12],−3.9%
same,Net log10 Kill,[2]; [12],0.3 log10
same,No. Tumor Free (40 days after the last treatment),[2]; [12],0
same,Nonspecific Deaths,[2]; [12],0/10
same,T-C (days to reach 750 mg),[2]; [12],6.9 days
same,MTD of carboplatin,[2]; given alone,30 mg/kg
same,% Weight Change,[4]; [13],−2.0%
same,CR (complete response),[4]; [13],1/10
same,Net Log10 Kill,[4]; [13],+0.3 log10
same,No. Tumor Free (Day 71),[4]; [13],0/9
same,No. of Deaths,[4]; [13],1/10^h
same,PR (partial response),[4]; [13],no partial responses and 0/10
same,T-C (days to reach 750 mg),[4]; [13],8.3 days
same,% Weight Change,[4]; [14],−5.5%
same,CR (complete response),[4]; [14],2/10
same,Net Log10 Kill,[4]; [14],+0.1 log10
same,No. Tumor Free (Day 71),[4]; [14],2/10
same,No. of Deaths,[4]; [14],0/10
same,PR (partial response),[4]; [14],1/10
same,T-C (days to reach 750 mg),[4]; [14],5.9 days
same,complete responses,[4]; carboplatin 20 mg/kg (MTD),20%
same,partial responses,[4]; carboplatin 20 mg/kg (MTD),10%
same,complete responses,[4]; carboplatin at 75% of its MTD (15 mg/kg),Ten percent
same,MTD of carboplatin,"[4]; ip, once a day, for 5 days",20 mg/kg
"CC(=O)Nc1ccc(C(=O)Nc2ccccc2N)cc1 [CI-994, 4-acetylamino-N-(2′-aminophenyl)-benzamide]",MTD at 15 days,in vivo [5],60 mg/kg
same,MTD,in vivo [1]; BALB/C,60 mg/kg/day
same,CR (complete response),[2]; [15],0
same,Net log10 Kill,[2]; [15],−1.3 log10
same,No. Tumor Free (40 days after the last treatment),[2]; [15],0
same,Nonspecific Deaths,[2]; [15],0/10
same,PR (partial response),[2]; [15],0
same,T-C (days to reach 750 mg),[2]; [15],4.6 days
same,complete response rate,[2]; CI-994 60 mg/kg/day (MTD),30%
same,T-C (days to reach 750 mg),"[2]; CI-994 60 mg/kg/day Days 11-15,18-22,25-29",16.2 days
same,% Weight Change,"[2]; mouse, in vivo, 15 mg/kg/day",+4.0%
same,% Weight Change,"[2]; mouse, in vivo, 30 mg/kg/day",13.4%
same,% Weight Change,"[2]; mouse, in vivo, 60 mg/kg/day",16.2%
same,dose dependence of terminal elimination half-life and apparent clearance rate,[6],independent of the dose administered
same,maximum plasma concentrations with increasing dose levels,[6],less than dose-proportional
same,time to maximum blood level after ingestion,[6]; preliminary results,1 to 2 h
same,half-life,"[6]; human, plasma, preliminary results, read-out: terminal elimination half-life (converted)",~15 h
same,radiolabeled drug appearing in the urine,[7],80%
same,clinical benefit,[8]; 8 mg/m^2 given orally daily,Clinical benefit has been reported in patients with renal cell cancer
same,dose-limiting toxicity,[8]; 8 mg/m^2 given orally daily,Thrombocytopenia
same,infrequent neurologic adverse events,[8]; 8 mg/m^2 given orally daily,"paresthesias, confusion, and hallucinations"
same,objective responses,[8]; 8 mg/m^2 given orally daily,Objective responses have been seen in patients with nonsmall cell lung cancer
same,dose increases tolerated by some patients,"[8]; oral daily, starting from 8 mg/m^2",10 mg/m^2
same,radiolabeled drug appearing in the urine,[9],62%
same,dose-limiting toxicity,[10]; in vivo,acute CNS toxicity manifested as sedation and somnolence
same,other adverse events,[10]; in vivo,"nausea, vomiting, hypotension resulting from dehydration, hypocalcemia, headache, and in one patient each, acute pancreatitis, a pyramidal syndrome characterized by hyperreflexia and bilateral Babinski reflexes, and sepsis"
same,MTD,"[10]; once daily high-dose 5-day dosing schedule, patients",135 mg/m^2/day
same,tumor lysis syndrome,[10]; patients with AML,"Two patients with AML developed tumor lysis syndrome, resulting in one death"
same,MTD,"solid tumor; 8 weeks of continuous daily therapy, followed by a 2-week drug holiday, patients",8 mg/m^2/day
same,maximum-tolerated dose (MTD),"solid tumor; duration of treatment 14 consecutive days, patients",15 mg/m^2/day
same,cumulative toxicity,"solid tumor; human, in vivo",no evidence of cumulative toxicity
same,dose-limiting toxicity,"solid tumor; human, in vivo",thrombocytopenia or neutropenia
same,other toxicities,"solid tumor; human, in vivo","nausea, vomiting, diarrhea, anorexia, fatigue, mucositis, headache, dehydration, and increases in liver and renal function test values"
same,time of occurrence of the dose-limiting toxicity after the start of therapy,"solid tumor; human, in vivo",≤ 1 month
same,responses,"solid tumor; patients, majority with extensive prior chemotherapy",one partial response in a heavily pretreated patient with NSCLC and a minor response in one patient each with renal cell cancer and NSCLC
same,CR (complete response),[4]; [16],2/10
same,Net Log10 Kill,[4]; [16],−1.2 log10
same,No. Tumor Free (Day 71),[4]; [16],2/10
same,No. of Deaths,[4]; [16],0/10
same,PR (partial response),[4]; [16],0/10
same,T-C (days to reach 750 mg),[4]; [16],1.0 days
same,CR (complete response),[4]; [17],1/10
same,Net Log10 Kill,[4]; [17],−1.3 log10
same,No. Tumor Free (Day 71),[4]; [17],1/10
same,No. of Deaths,[4]; [17],0/10
same,PR (partial response),[4]; [17],0/10
same,T-C (days to reach 750 mg),[4]; [17],0.9 days
same,complete responses,[4]; CI-994 30 mg/kg,20%
same,partial responses,[4]; CI-994 30 mg/kg,10%
same,CR (complete response),[4]; [18],2/10
same,Net Log10 Kill,[4]; [18],−0.7 log10
same,No. Tumor Free (Day 71),[4]; [18],2/10
same,No. of Deaths,[4]; [18],0/10
same,PR (partial response),[4]; [18],1/10
same,T-C (days to reach 750 mg),[4]; [18],8.2 days
same,complete responses,[4]; CI-994 60 mg/kg (MTD),50%
same,CR (complete response),[4]; [19],5/10
same,No. of Deaths,[4]; [19],0/10
same,T-C (days to reach 750 mg),[4]; [19],19.4 days
same,No. Tumor Free (Day 71),[4]; [20],5/10
same,PR (partial response),[4]; [20],no partial responses and 0/10
same,antitumor activity,[4]; lower CI-994 doses (below 30 mg/kg),Little antitumor activity
same,% Weight Change,"[4]; mouse, in vivo, po, 7.5 mg/kg/day",+4.4%
same,% Weight Change,"[4]; mouse, in vivo, po, 15 mg/kg/day",+4.9%
same,% Weight Change,"[4]; mouse, in vivo, po, 30 mg/kg/day",+2.0%
same,% Weight Change,"[4]; mouse, in vivo, po, 60 mg/kg/day",−1.5%
